Data on 14 compounds can be found in US20240368191A1, “HETEROCYCLIC COMPOUNDS AND USES THEREOF” (Kumquat Biosciences Inc., priority 2021, published 2024).

Data set [1] in a line: in vitro. The conditions noted are these: microsomes, pH 7.4.
Description: (§1) The metabolic stability of a test compound is assayed at 37° C. using pooled liver microsomes (mouse or human liver microsomes). An aliquot of 10 μL of 50 μM test compound is mixed with 490 μL of 0.611 mg/mL liver microsomes, then 50 μL of the mixtures are dispensed to the 96 well tubes and warmed at 37° C. for 10 minutes. The reactions are initiated by adding 50 μL of the pre-warmed NADPH regeneration system solution (add 1.2 μL solution, 240 μl solution B, mix with 10.56 ml KPBS) and then incubated at 37° C. The final incubation solution contains 100 mM potassium phosphate (pH 7.4), 1.3 mM NADP+, 3.3 mM glucose 6-phosphate, 0.4 Unit/mL of glucose 6-phosphate dehydrogenase, 3.3 mM magnesium chloride, 0.3 mg/mL liver microsomes and 0.5 μM test article. After 0, 15, 30 and 60 minutes in a shaking incubator, the reactions are terminated by adding 100 μL of acetonitrile containing 200 nM buspirone as an internal standard. All incubations are conducted in duplicate. […] Samples are then centrifuged at 3500 rpm for 10 minutes (4° C.) using Sorvall Legend XRT Centrifuge (Thermo Scientific, GE). Supernatants (40 μL) are transferred into clean 96-deep well plates. Each well is added with 160 μL of ultrapure water (Milli-Q, Millipore Corporation) with 0.1% (v/v) formic acid (Fisher Chemical), mixed thoroughly and subjected to LC/MS/MS analysis in MRM positive ionization mode.
(§2) All the samples are measured using a mass spectrometer (QTrap 5500 quadrupole/ion trap) coupled with a Shimadzu HPLC system. The HPLC system consisted of a Shimadzu series degasser, binary quaternary gradient pumps, column heater coupled to an autosampler, and a Phenomenex Gemini-NX, C18, 3.0 μm or Phenomenex Lunar, C8, 5.0 μM HPLC column (Phenomenex, Torrance, CA), and eluted with a mobile phase gradient consisting of Solution A (0.1% formic acid water) and Solution B (0.1% formic acid acetonitrile). The column temperature is maintained at 40° C. All the analytes are detected with positive-mode electrospray ionization (ES+).
(§3) The half-life for the metabolic degradation of the test compound is calculated by plotting the time-course disappearance of the test compound during the incubation with liver microsomes. Each plot is fitted to a first-order equation for the elimination of the test compound (% remaining compound) versus time using non-linear regression (Equation 1).
(§4) where Ct is the mean relative substrate concentration at time t and C0 is the initial concentration (0.5 μM) at time 0. Note that the area ratio of the substrate peak to an internal standard peak is proportional to the analyte concentration and is used for regression analysis to derive a value of k.
Data set [2] concerns the target T1, KRAS G12D 1-169 (His-tagged, GDP-loaded) (Homo sapiens, UniProt P01116, G12D).
T1 construct: His -tagged GDP-loaded G12D 1-169; made in house; host or cells: E. coli, e.g. BL21 (DE3)
The data set is described as follows: Covalent modification of KRAS protein by intact-protein LC-MS. Format: binding. The conditions noted are these: comparable or same conditions as K-Ras G12S. The method, then: Test compounds are prepared as 10 mM stock solutions in DMSO (Fisher cat #BP231-100). KRAS protein (His -tagged GDP-loaded wildtype 1-169, His -tagged GDP-loaded G12S 1-169 or His -tagged GDP-loaded G12D 1-169) is diluted to ˜2 μM in appropriate buffer (e.g., a Hepes buffer at physiological conditions). For testing KRAS modification, compounds are diluted to 50× final test concentration in DMSO in 96-well storage plates. 2 μl of the diluted 50× compounds are added to appropriate wells in the PCR plate (Fisher cat #AB-0800). ˜49 μl of the stock protein solution is added to each well of the 96-well PCR plate. Reactions are mixed carefully. The plate is sealed well with aluminum plate seal, and stored in drawer at room temperature for 24 hrs. 5 μl of 2% formic acid (Fisher cat #A117-50) in MilliQ H2O is then added to each well followed by mixing with a pipette. The plate is then resealed with aluminum seal and stored until mass spectrometry analysis.
The extent of covalent modification of KRAS proteins was determined by liquid chromatography electrospray mass spectrometry analysis of the intact proteins on a Thermo Q-Exactive Plus mass spectrometer. 20 μl of sample was injected onto a bioZen 3.6 μm Intact C4 column (Phenomenex cat #00B-4767-AN) placed in a column oven set to 40° C. and separated using a suitable LC gradient from ˜20% to ˜60% solvent B. Solvent A was 0.1% formic acid and solvent B was 0.1% formic acid in acetonitrile. HESI source settings were set to 40, 5 and 1 for the sheath, auxiliary and sweep gas flow, respectively. The spray voltage was 4 kV, and the capillary temperature was 320° C. S-lens RF level was 50 and auxiliary gas heater temperature was set to 200° C. The mass spectrometry was acquired using a scan range from 650 to 1750 m/z using positive polarity at a mass resolution of 70,000, AGC target of 1e6 ions and maximum injection time of 250 ms. The recorded protein mass spectrum was deconvoluted from the raw data file using Protein Deconvolution v4.0 (Thermo). The protein mass and adduct masses were exported with their peak intensities. The peak intensities for the unmodified and modified protein were used to calculate the percent covalent modification of the KRAS protein based on the following equation: % KRAS protein modification=((KRAS−compound)/(KRAS)+(KRAS−Compound))*100.

Data set [3] can be described thus: Metabolic (microsomal) stability assay. The conditions noted are these: pooled liver microsomes, pH 7.4. On the technique in general: Liver microsomes are a subcellular fraction often used to study metabolism.
Description: as §1, §2, §3, §4

A value given as a limit tells only on which side of the number the result lay.

T1 sequence (P01116 1-169 isoform P01116-2 G12D): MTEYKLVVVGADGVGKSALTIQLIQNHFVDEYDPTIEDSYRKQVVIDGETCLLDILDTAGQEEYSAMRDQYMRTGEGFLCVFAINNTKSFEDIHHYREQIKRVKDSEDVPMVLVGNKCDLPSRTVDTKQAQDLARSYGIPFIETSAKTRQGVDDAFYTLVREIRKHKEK

As to `N#Cc1cnn(C(=O)N2C3CCC2CN(c2nc(OC[C@@]45CCCN4C[C@H](F)C5)nc4c(F)c(-c5ccc(F)c6sc(N)nc56)c(Cl)cc24)C3)c1` [Compound A253, 1-(3-(7-(2-amino-7-fluorobenzo-[d]thiazol-4-yl)-6-chloro-8-fluoro-2-(((2R,7aS)-2-fluoro-tetrahydro-1H-pyrrolizin-7a(5H)-yl)methoxy)quinazolin-4-yl)-3,8-diazabicyclo[3.2.1]-octane-8-carbonyl)-1H-pyrazole-4-carbonitrile], in data set [1], the half-life (commonly how long it takes for the measured level to halve) at 0.5 μM was above 10 min.
In data set [1], `C#Cc1c(F)ccc2cc(O)cc(-c3ncc4c(N5CC6CCC(C5)N6C(=O)n5cncn5)nc(OC[C@@]56CCCN5C[C@H](F)C6)nc4c3F)c12` [Compound A234, (3-(7-(8-ethynyl-7-fluoro-3-hydroxynaphthalen-1-yl)-8-fluoro-2-(((2R,7aS)-2-fluoro-tetrahydro-1H-pyrrolizin-7a(5H)-yl)methoxy)pyrido[4,3-d]pyrimidin-4-yl)-3,8-diaza-bicyclo[3.2.1]octan-8-yl)(1H-1,2,4-triazol-1-yl)methanone] had a half-life at 0.5 μM above 10 min.
Take `Cc1ncn(C(=O)N2CC3(CCCN(c4nc(OC[C@@]56CCCN5C[C@H](F)C6)nc5c(F)c(-c6ccc(F)c7sc(N)c(C#N)c67)c(Cl)cc45)C3)C2)n1` [Compound A102, 2-amino-4-(6-chloro-8-fluoro-2-(((2R,7aS)-2-fluorotetrahydro-1H-pyrrolizin-7a(5H)-yl)meth-oxy)-4-(2-(3-methyl-1H-1,2,4-triazole-1-carbonyl)-2,6-diaza-spiro[3.5]nonan-6-yl)quinazo-lin-7-yl)-7-fluorobenzo[b]-thiophene-3-carbonitrile]: in data set [2], the “covalent labeling of K-Ras G12D” value is listed as “essentially no detectable labeling”. Moreover, the half-life at 0.5 μM in data set [3] is above 10 min.
In data set [1], `Nc1nc2c(-c3c(Cl)cc4c(N5CC6CCC(C5)N6C(=O)n5cncn5)nc(OC[C@@]56CCCN5C[C@H](F)C6)nc4c3F)ccc(F)c2s1` [Compound A111, (3-(7-(2-amino-7-fluorobenzo-[d]thiazol-4-yl)-6-chloro-8-fluoro-2-(((2R,7aS)-2-fluoro-tetrahydro-1H-pyrrolizin-7a(5H)-yl)methoxy)quinazolin-4-yl)-3,8-diazabicyclo[3.2.1]-octan-8-yl)(1H-1,2,4-triazol-1-yl)methanone] yielded a half-life at 0.5 μM above 10 min.
Turning to `N#Cc1c(N)sc2c(F)ccc(-c3c(Cl)cc4c(N5CC6CCC(C5)N6C(=O)n5cncn5)nc(OC[C@@]56CCCN5C[C@H](F)C6)nc4c3F)c12` [Compound A260, 4-(4-(8-(1H-1,2,4-triazole-1-carbonyl)-3,8-diazabicyclo-[3.2.1]octan-3-yl)-6-chloro-8-fluoro-2-(((2R,7aS)-2-fluoro-tetrahydro-1H-pyrrolizin-7a(5H)-yl)methoxy)quinazolin-7-yl)-2-amino-7-fluorobenzo-[b]thiophene-3-carbonitrile], the half-life at 0.5 μM in data set [1] is above 10 min.
Take `CC1(C)CN(c2nc(OC[C@@]34CCCN3C[C@H](F)C4)nc3c(F)c(-c4ccc(F)c5sc(N)c(C#N)c45)c(Cl)cc23)CC2(CN(C(=O)n3cncn3)C2)O1` [Compound A296, 2-amino-4-(6-chloro-4-(6,6-dimethyl-2-(1H-1,2,4-triazole-1-carbonyl)-5-oxa-2,8-diaza-spiro[3.5]nonan-8-yl)-8-fluoro-2-(((2R,7aS)-2-fluorotetrahydro-1H-pyrrolizin-7a(5H)-yl)meth-oxy)quinazolin-7-yl)-7-fluoro-benzo[b]thiophene-3-carbonitrile]: the “covalent labeling of K-Ras G12D” value in data set [2] is “essentially no detectable labeling”. In addition, the half-life at 0.5 μM in data set [3] is above 10 min.
The matching figures for `Nc1nc2c(-c3c(Cl)cc4c(N5CCOC6(CCN(C(=O)n7cncn7)C6)C5)nc(OC[C@@]56CCCN5C[C@H](F)C6)nc4c3F)ccc(F)c2s1` (stereo partly drawn) [Compound A221, (9-(7-(2-amino-7-fluorobenzo-[d]thiazol-4-yl)-6-chloro-8-fluoro-2-(((2R,7aS)-2-fluoro-tetrahydro-1H-pyrrolizin-7a(5H)-yl)methoxy)quinazolin-4-yl)-6-oxa-2,9-diazaspiro[4.5]-decan-2-yl)(1H-1,2,4-triazol-1-yl)methanone]: “essentially no detectable labeling” and above 10 min.
Take `CN1CCC[C@H]1COc1nc(N2CCOC3(CN(C(=O)n4cncn4)C3)C2)c2cc(Cl)c(-c3ccc(F)c4sc(N)c(C#N)c34)c(F)c2n1` [Compound A182, 4-(4-(2-(1H-1,2,4-triazole-1-carbonyl)-5-oxa-2,8-diazaspiro-[3.5]nonan-8-yl)-6-chloro-8-fluoro-2-(((S)-1-methylpyrrol-idin-2-yl)methoxy)quinazolin-7-yl)-2-amino-7-fluorobenzo-[b]thiophene-3-carbonitrile]: the “covalent labeling of K-Ras G12D” value in data set [2] is recorded as “essentially no detectable labeling”. Besides, in data set [3], the half-life at 0.5 μM was above 10 min.
`CN(C)C1CN(c2nc(N3CCOC4(CN(C(=O)n5cncn5)C4)C3)c3cc(Cl)c(-c4ccc(F)c5sc(N)c(C#N)c45)c(F)c3n2)C1` [Compound A256, 4-(4-(2-(1H-1,2,4-triazole-1-carbonyl)-5-oxa-2,8-diazaspiro[3.5]nonan-8-yl)-6-chloro-2-(3-(dimethylamino)azetidin-1-yl)-8-fluoroquinazolin-7-yl)-2-amino-7-fluorobenzo[b]thiophene-3-carbonitrile]: the “covalent labeling of K-Ras G12D” value in data set [2] was “essentially no detectable labeling”. The compound also had a half-life at 0.5 μM in data set [3] above 10 min.
As for `C[C@H](Oc1nc(N2CCCCC3(CN(C(=O)n4cncn4)C3)C2)c2cc(Cl)c(-c3ccc(F)c4sc(N)c(C#N)c34)c(F)c2n1)[C@@H]1CCCN1C` [Compound A219, 4-(4-(2-(1H-1,2,4-triazole-1-carbonyl)-2,6-diazaspiro[3.6]-decan-6-yl)-6-chloro-8-fluoro-2-((S)-1-((S)-1-methylpyrrol-idin-2-yl)ethoxy)quinazolin-7-yl)-2-amino-7-fluorobenzo-[b]thiophene-3-carbonitrile], in data set [2], the “covalent labeling of K-Ras G12D” value is listed as “essentially no detectable labeling”. This compound also had a half-life at 0.5 μM in data set [3] above 10 min.
In turn, `Nc1nc2c(-c3c(Cl)cc4c(N5CCC56CCN(C(=O)n5cncn5)CC6)nc(OC[C@@]56CCCN5C[C@H](F)C6)nc4c3F)ccc(F)c2s1` [Compound A288, (1-(7-(2-amino-7-fluorobenzo-[d]thiazol-4-yl)-6-chloro-8-fluoro-2-(((2R,7aS)-2-fluoro-tetrahydro-1H-pyrrolizin-7a(5H)-yl)methoxy)quinazolin-4-yl)-1,7-diazaspiro[3.5]nonan-7-yl)(1H-1,2,4-triazol-1-yl)-methanone] returned a half-life at 0.5 μM in data set [3] above 10 min.
On the same count and under the same terms, the same measure for `N#Cc1c(N)sc2c(F)ccc(-c3c(Cl)cc4c(N5CCC6C5CCCN6C(=O)n5cncn5)nc(OC[C@@]56CCCN5C[C@H](F)C6)nc4c3F)c12` (stereo partly drawn) [Compound A181, 4-(4-(4-(1H-1,2,4-triazole-1-carbonyl)octahydro-1H-pyrrolo[3,2-b]pyridin-1-yl)-6-chloro-8-fluoro-2-(((2R,7aS)-2-fluorotetrahydro-1H-pyrrol-izin-7a(5H)-yl)methoxy)quin-azolin-7-yl)-2-amino-7-fluoro-benzo[b]thiophene-3-carbonitrile]: above 10 min.
For the compound `Cc1ncn(C(=O)N2CC3(C2)CN(c2nc(OC[C@@]45CCCN4C[C@H](F)C5)nc4c(F)c(-c5ccc(F)c6sc(N)c(C#N)c56)c(Cl)cc24)CCO3)n1` [Compound A148, 2-amino-4-(6-chloro-8-fluoro-2-(((2R,7aS)-2-fluorotetrahydro-1H-pyrrolizin-7a(5H)-yl)-methoxy)-4-(2-(3-methyl-1H-1,2,4-triazole-1-carbonyl)-5-oxa-2,8-diazaspiro[3.5]nonan-8-yl)quinazolin-7-yl)-7-fluoro-benzo[b]thiophene-3-carbonitrile], the “covalent labeling of K-Ras G12D” value in data set [2] is on record as “essentially no detectable labeling”. The compound also yielded a half-life at 0.5 μM in data set [3] above 10 min.
As to `N#Cc1c(N)sc2c(F)ccc(-c3c(Cl)cc4c(O[C@@H]5CCN(C(=O)n6cncn6)C5)nc(OCC56CCCN5C[C@H](F)C6)nc4c3F)c12` (stereo partly drawn) [Compound A213, 4-(4-(((R)-1-(1H-1,2,4-triazole-1-carbonyl)pyrrolidin-3-yl)oxy)-6-chloro-8-fluoro-2-(((2R)-2-fluorotetrahydro-1H-pyrrolizin-7a(5H)-yl)methoxy)quinazolin-7-yl)-2-amino-7-fluorobenzo-[b]thiophene-3-carbonitrile], the “covalent labeling of K-Ras G12D” value in data set [2] is listed as “essentially no detectable labeling”. Further, the half-life at 0.5 μM in data set [3] was above 10 min.
